Measurements: US10266493B2, “Thioacetate compounds, compositions and methods of use” (Ardea Biosciences, Inc., priority 2010, dated 2019)

biological target: URAT1 (Homo sapiens, UniProt Q96S37); test: URAT1-model assay: 14C-uric acid transport in HEK293/URAT1-model cells; format: cell-based; conditions: HEK293 cells transfected with model URAT1 construct; 14C-uric acid uptake, 10 minutes at room temperature; read-out: URAT1 EC50 Activity Ranking
Method: Transfections of HEK293 cells with a model URAT1 construct was performed using L2000 transfection reagent (Invitrogen) as described by the manufacturer. After 24 h the transfected cells were split into 10 cm tissue culture plates and grown for 1 day after which the medium was replaced with fresh growth medium containing G418 (Gibco) at 0.5 mg/ml final concentration. Drug-resistant colonies were selected after approximately 8 days and then tested for ^14C-uric acid transport activity. The HEK293/URAT1-model cells are plated on Poly-D-Lysine Coated 96-well Plates at a density of 125,000 cells per well.
Cells were grown overnight (20-26 hours) at 37° C. in an incubator. […] Plates were incubated at room temperature for 10 minutes then washed 3 times with 50 μl Wash Buffer and 3 times with 250 μl Wash Buffer. Microscint 20 Scintillation Fluid was added and plates were incubated overnight at room temperature to equilibrate. Plates are then read on the TopCount Plate Reader and an EC50 value generated.

URAT1, sequence (Q96S37 whole entry, looked up): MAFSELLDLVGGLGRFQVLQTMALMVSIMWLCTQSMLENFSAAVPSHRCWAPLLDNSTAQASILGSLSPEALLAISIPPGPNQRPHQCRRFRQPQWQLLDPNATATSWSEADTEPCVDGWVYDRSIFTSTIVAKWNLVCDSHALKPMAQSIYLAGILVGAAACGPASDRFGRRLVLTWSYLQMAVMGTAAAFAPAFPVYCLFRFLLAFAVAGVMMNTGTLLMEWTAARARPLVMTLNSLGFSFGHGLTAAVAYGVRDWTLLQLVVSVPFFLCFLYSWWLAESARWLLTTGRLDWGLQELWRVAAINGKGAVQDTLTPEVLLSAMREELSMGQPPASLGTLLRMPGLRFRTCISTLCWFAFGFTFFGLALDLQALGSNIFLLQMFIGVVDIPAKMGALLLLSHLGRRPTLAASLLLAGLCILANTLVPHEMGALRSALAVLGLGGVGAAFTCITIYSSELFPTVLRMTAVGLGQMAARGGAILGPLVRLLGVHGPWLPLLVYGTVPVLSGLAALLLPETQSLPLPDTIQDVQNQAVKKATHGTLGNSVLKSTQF

SMILES	EC50 [µM]
CC(C)(Sc1ccncc1-c1cccnc1)C(=O)O [Example 2M]	0.5 to 10
Cn1cc(-c2cnccc2SC(C)(C)C(=O)O)cn1 [Example 2QQ]	0.5 to 10
CC(C)(Sc1ccncc1-c1ccc2c(c1)OCO2)C(=O)O [Example 2E]	0.5 to 10
CC(C)(Sc1ccncc1-c1ccc(C(=O)O)cc1F)C(=O)O [Example 2HHH]	0.5 to 10
CCOc1ccc2cc(-c3cnccc3SC(C)(C)C(=O)O)ccc2c1 [Example 2Y]	0.5 to 10
CC(C)(Sc1ccncc1-c1ccc(CC(N)=O)cc1)C(=O)O [Example 2SS]	0.5 to 10
CN(C)c1ccc(-c2cnccc2SC(C)(C)C(=O)O)cc1 [Example 2OO]	0.5 to 10
COc1ncc(-c2cnccc2SC(C)(C)C(=O)O)cn1 [Example 2HH]	0.5 to 10
CC(C)(Sc1ccncc1-c1ccc2c(c1)OCCO2)C(=O)O [Example 2I]	0.5 to 10
COc1ccc2cc(-c3cnccc3SC(C)(C)C(=O)O)ccc2c1 [Example 2V]	0.5 to 10
CC(C)(Sc1ccncc1-c1ccc(N)cc1)C(=O)O [Example 2YY]	0.5 to 10
Cc1ccc(-c2cnccc2SC(C)(C)C(=O)O)cn1 [Example 2LL]	0.5 to 10

Other lines, results leading:

EC50 [µM]	SMILES
0.5 to 10	CC(C)(Sc1ccncc1-c1ccc(CC#N)cc1)C(=O)O [Example 2RR]
0.5 to 10	CC(C)(Sc1ncncc1-c1ccc(C#N)c2ccccc12)C(=O)O [Example 6B, 2-(5-(4-cyanonaphthalen-1-yl)pyrimidin-4-ylthio)-2-methylpropanoic Acid]
0.5 to 10	CC(C)(Sc1ccncc1-c1ccc2ccccc2c1)C(=O)O [Example 2Z]
0.5 to 10	CC(C)(Sc1ccncc1-c1cc2ccccc2[nH]1)C(=O)O [Example 2G]
0.5 to 10	N#Cc1ccc(-c2cnccc2SCC(=O)O)c2ccccc12 [Example 2B]
0.5 to 10	N#Cc1ccc(-c2cnccc2SC(F)(F)C(=O)O)c2ccccc12 [Example 2FF]
0.5 to 10	CC(C)(Sc1ccncc1-c1cccc2cnccc12)C(=O)O [Example 2L]
0.5 to 10	CC(C)(Sc1ccncc1-c1ccccc1)C(=O)O [Example 2R]
0.5 to 10	N#Cc1ccc(-c2cccnc2SCC(=O)O)c2ccccc12 [Example 4B]
